Reference: patent US11726082B2, “Screening method of drug candidates for treating disease using interaction between calcium and phosphatidylinositol phosphate” (Gachon University of Industry—Academic Cooperation …, priority 2017, dated 2023)
“Also recorded” adds a separate entry of the source.

Key:
[1] = ITC of phospholipid liposomes with calcium; type: binding; details: liposome with POPC 80:20, 25° C., unlike POPS
Protocol: Particularly, a protein solution was prepared by suspending a protein in 10 mM HEPES (pH 7.0). Phospholipid related ligand was titrated in the protein solution at 25° C. by using iTC200 micro calorimetry system (MicroCal Inc., USA), and the generated graph was corrected using Origin software (MicroCal Inc., USA). At this time, the phospholipid related ligand was prepared in the form of liposome by mixing POPC (1-palmitoyl-2-oleoyl-sn-glycero-3-phosphocholin) chloroform solution and POPS (1-palmitoyl-2-oleoyl-sn-glycero-3-phosphoserine), PI(3,4)P2 (1,2-dipalmotoyl-sn-glycero-3-phosphatidylinositol-3,4-[…]), PI(4,5)P2 (1,2-dipalmotoyl-sn-glycero-3-phosphatidylinositol-4,5-trisphosphate) or PI(3,4,5)P3 (1,2-dipalmotoyl-sn-glycero-3-phosphatidylinositol-3,4,5-trisphosphate) at the molar ratio of 80:20. The organic solvent was eliminated. The organic solvent was removed and a single layer lamellar was produced in HEPES (pH 7.0) using phospholipids.

[2] = test system: Akt protein; experiment: Western blotting of Akt protein phosphorylation in insulin-treated HepG2 cells; type: cell-based, human; details: PMA 0, 10, 50 or 100 nM or ionomycin 0, 1, 5, 10 or 20 μM, 100 nM insulin, dose-dependent
Protocol: First, male C57BL/6 mice at 8 weeks were divided into the fasted group wherein the mice were fasted for 16 hours and the refed group wherein the mice were fasted for 16 hours and then fed for 4 hours. Each group was sub-divided into the high fat diet group (HFD) and the normal diet group (chow). The liver cells were extracted from the raised mice by the same manner and under the same conditions as described in Example 1. The extracted liver cells were lysed in a lysis buffer containing phosphatase (Sigma-Aldrich, USA) and protease inhibitor (Sigma-Aldrich, USA). Proteins extracted from 2 to 3 mg of the liver tissue were homogenized by using a tissue homogenizer (TissuLyser, Qiagen, USA) for 1.5 minutes at a frequency of 1/30 sec. The homogenized lysate was centrifuged at 12,000 rpm for 15 minutes and the supernatant was obtained. The amount of the extracted protein was quantified by using a protein assay kit (Bio-Rad Laboratories, USA), and at this time BSA was used as a standard sample. 3 mg of the protein was mixed with 6× loading buffer, followed by electrophoresis using 10% SDS-PAGE gel. The electrophoresed protein was transferred onto a polyvinylidene fluoride (PVDF) membrane by using a transfer buffer at 4° C. with 120 V for 1.5 hours. The PVDF membrane on which the protein was transferred was pretreated with a blocking buffer prepared by mixing 5% skim milk with TBS buffer (TBS-T, pH 7.6) supplemented with Tween 20 for 30 minutes, and the membrane was washed with TBS-T. The washed membrane was added with the antibody against Akt (Cell Signaling Technology, USA), Akt(T308) (Cell Signaling Technology, USA), Akt(S473) (Cell Signaling Technology, USA), FOXO3A (Cell Signaling Technology, USA), FOXO3A(S253) (Cell Signaling Technology, USA), GSK-3β (Cell Signaling Technology, USA) or GSK-3β(S9) (Cell Signaling Technology, USA) protein as a primary antibody, followed by reaction at 4° C. for 12 hours. At this time, the antibody against actin (Santa Cruz Biotechnology, USA) protein was used for the control group. Upon completion of the reaction, the secondary antibody corresponding to the primary antibody was added thereto, followed by reaction at room temperature for 30 minutes. The PVDF membrane was washed with TBS-T buffer three times. The washed PVDF membrane was added with ECL solution (Thermo Scientific, USA), followed by image observation.
To investigate the changes in insulin sensitivity when insulin was added to the fatty liver cell model constructed in vitro, the phosphorylations of those proteins that were involved in insulin signal transduction were examined. PA was added to the human HepG2 cells prepared in Example 3, followed by reaction for 24 hours. […]

[3] = test system: Akt protein; experiment: Western blot of Akt activity with C2-Akt fusion protein and PI3K co-treated with PTEN or SHIP2; type: cell-based; details: cells with C2-Akt fusion protein and PI3K vectors co-treated with PTEN or SHIP2
Protocol: Particularly, the experiment was performed by the same manner under the same conditions as described in Example 2 except that the vector expressing the C2-Akt fusion protein and the vector expressing PI3K protein were co-treated with PTEN or SHIP2 and the antibody against Akt (Cell Signaling Technology, USA), Akt(T308) (Cell Signaling Technology, USA), Akt(S473) (Cell Signaling Technology, USA), PI3K (Cell Signaling Technology, USA), PTEN (Cell Signaling Technology, USA) or SHIP2 (Upstate Biotechnology, USA) protein was used as the primary antibody.

[4] = test system: CHO cells; experiment: Migration of mCherry-tagged PH or C2 domain to the cell membrane, fluorescence microscopy; type: cell-based
Text: First, the PH domain of Akt1 protein or C2 domain of PKCβ protein was obtained by PCR using the primers consisting of the nucleotide sequences represented by […]. The obtained PCR product was cloned in pmCherry-C1 vector (Takara Clontech, Japan) by the conventional cloning method. CHO cells were transfected with the prepared vector by using lipofectamine according to the manufacturer's protocol. The transfected cells were selected by using blastidicin. Then, mCherry positive cells were confirmed by flow cytometry.
PMA at the concentration of 100 nM, ionomycin at the concentration of 10 μM or insulin at the concentration of 100 nM was added to the cells expressing the PH domain of Akt1 protein or the C2 domain of PKCβ protein and the location of the expressed protein was confirmed by fluorescence microscopy.

[5] = biological target: T1, PH domain of Akt protein (Homo sapiens, UniProt P31749); experiment: Protein-lipid binding assay (PIP-strips) with PH domain of Akt protein
T1 construct: His6 (C); made in house; host or cells: E. coli BL21 (DE3), pET28a vector
Protocol: E. coli BL21 (DE3) cells were transfected with a vector containing the PH domain of Akt protein, and the cells were cultured in 50 Ml of LB medium supplemented with 50 μg/Ml of kanamycin. The culture was performed at 37° C. for 8 hours. Upon completion of the culture, the cells were transferred into a 25° C. agitation incubator. The cells were cultured until OD600 reached 0.6 to 1.0, and then 1 mM IPTG (isopropyl-β-D-1-thiogalactopyranoside) was added thereto. 18 hours after the addition of IPTG, centrifugation was performed at 7,000×g at 4° C. for 10 minutes to obtain cells. Sonication equilibrium buffer (150 mM NaCl, 50 mM Tris-HCl, pH 7.6) was added to the obtained cells. The cells added with the sonication equilibrium buffer were lysed by sonication. The PH domain of Akt protein was purified from the cell lysate by […] using nickel-nitrilotriacetic acid and HiLoad Superdex-200 column (GE Healthcare life science, USA). The purity of the purified protein was examined by SDS-PAGE (sodium dodecyl sulfate polyacrylamide gel electrophoresis).
Particularly, the analysis was performed by using membrane-immobilized lipid strips (PIP-strips, Echelon Biosciences Inc., USA). […]

CCCCCCCCCCCCCCCC(=O)OCC(COP(=O)(O)OC1C(O)C(O)C(OP(=O)(O)O)C(OP(=O)(O)O)C1O)OC(=O)CCCCCCCCCCCCCCC (stereo not drawn) [PI(3,4)P2, 1,2-dipalmotoyl-sn-glycero-3-phosphatidylinositol-3,4-triphosphate]
binding to calcium [1]: high affinity; also recorded: strong binding force

CCCCCCCCCCCCCCCC(=O)OCC(COP(=O)(O)OC1C(O)C(OP(=O)(O)O)C(OP(=O)(O)O)C(OP(=O)(O)O)C1O)OC(=O)CCCCCCCCCCCCCCC (stereo not drawn) [PI(3,4,5)P3, 1,2-dipalmotoyl-sn-glycero-3-phosphatidylinositol-3,4,5-trisphosphate]
binding to calcium [1]: high affinity; also recorded: strong binding force

CCCCCCCCCCCCCCCC(=O)OCC(COP(=O)(O)OC1C(O)C(O)C(OP(=O)(O)O)C(OP(=O)(O)O)C1O)OC(=O)CCCCCCCCCCCCCCC (stereo not drawn) [PI(4,5)P2, 1,2-dipalmotoyl-sn-glycero-3-phosphatidylinositol-4,5-trisphosphate]
binding to calcium [1]: high affinity; also recorded: strong binding force

CCCCCCCCCCCCCC(=O)O[C@@H]1[C@@H](C)[C@@]2(O)[C@@H](C=C(CO)C[C@]3(O)C(=O)C(C)=C[C@@H]23)[C@@H]2C(C)(C)[C@]12OC(C)=O [PMA, phorbol myristate acetate]
phosphorylation of Akt protein [2]: significantly inhibited

C[C@H](CCC(=O)O)C[C@H](C)C[C@H](C)C(=O)/C=C(\O)[C@H](C)C[C@H](C)C/C=C/[C@@H](C)[C@@H](O)[C@@H](C)[C@@H](O)C[C@@H]1CC[C@@](C)([C@H]2CC[C@@](C)([C@@H](C)O)O2)O1 [ionomycin]
phosphorylation of Akt protein [2]: significantly inhibited

PTEN: phosphatase and tensin homolog, co-treated
Akt protein activity [3]: reduced

B1: PH domain of Akt protein: PH domain of Akt1 protein (SEQ. ID. NO: 13) (protein)
chain: MSDVAIVKEGWLHKRGEYIKTWRPRYFLLKNDGTFIGYKERPQDVDQREAPLNNFSVAQCQLMKTERPRPNTFIIRCLQWTTVIERTFHVETPEEREEWTTAIQTVADGLKKQEEEEMDFRSGSPSDNSGAEEMEVSLAKPKHR
modifications: PH domain of Akt protein
migration to the cell membrane ([4]; addition of insulin 100 nM): ted to the cell membrane | migration to the cell membrane ([4]; increased intracellular calcium concentration (PMA 100 nM, ionomycin 10 μM)): not observed; also recorded: inhibited | binding to PI(3,4)P2 or PI(3,4,5)P3 [5]: bound
